# Entries after “also recorded” stand apart in the source; their conditions may differ.
# Assays:
# [1] = tested on: CFA-induced thermal pain in mice; test: CFA inflammatory pain, thermal; assay type: in vivo, mouse
# Method: A total of five wildtype (WT) male mice were injected IP with A20 free base (3 mice at 10 mg/kg and 2 mice at 20 mg/kg in 6% DMSO/94% sunflower seed oil, data is pooled) and three WT males with vehicle (V) only as control. As indicated, injections of A20 or V started two days prior to the single injection of CFA into one of the two hind paws to initiate inflammatory pain, and injections continued for two additional days. For each day's examination of withdrawal latency, both left and right hind paws were subjected to 6-12 thermal pain measurements to obtain an average response time for each mouse. Mice were at 14 weeks age when experiment started.
# Wildtype (WT) female mice were injected IP with either A20 free base (20 mg/kg in 6% DMSO/94% sunflower seed oil), with MCD kinase inhibitor (10 mg/kg in PBS), or vehicle only (6% DMSO/94% sunflower seed oil). Injections of A20, MCD, or V started two days prior to a single injection of CFA into one of the two hind paws to initiate inflammatory pain, and injections continued for two additional days. For each day's examination of withdrawal latency, both left and right hind paws were subjected to 6-12 thermal pain measurements to obtain an average response time, and for each mouse the average of the uninjured hind paw response time was divided by the average of the injured side response time to obtain a pain response ratio for each mouse which was then plotted and subjected to indicated statistical analysis. Data shown were those obtained at day +3 post-CFA. Mice were at 20 weeks age when experiment started.
# FIG. 63 depicts tests of salt versions of compounds A20 and QPB4-Bn showing both are effective at reducing inflammatory pain when injected after the pain-generating insult and when using PBS as the vehicle. Wild-type (WT) male and female mice were injected IP with either A20.2×HCl salt (20 mg/kg in PBS), QPB4-Bn·2×HCl salt (20 mg/kg in PBS), or vehicle only (PBS). Here, the first injection of A20, QPB4-Bn, or V started 15 minutes after CFA was injected into one of the two hind paws to initiate inflammatory pain, and injections continued every 12 hours for three additional days. For each day's examination of withdrawal latency, both left and right hind paws were subjected to 6-12 thermal pain measurements to obtain an average response time, and for each mouse the average of the uninjured hind paw response time was divided by the average of the injured side response time to obtain a pain response ratio for each mouse which was then plotted and subjected to indicated statistical analysis. Data shown were those obtained at day +3 post-CFA. Mice were at 8 weeks age when experiment started.
# FIG. 64 depicts tests of two more A20 analogs, salt forms of QPB4 and QPP (QPP127) show both are effective at reducing inflammatory pain when injected after the pain-generating insult and when using PBS as the vehicle. Wild-type (WT) female mice were injected IP with QPB4.2×HCl salt (20 mg/kg in PBS), QPP (QPP127)·2×HCl salt (20 mg/kg in PBS), or vehicle only (PBS). Here, the first injection of QPB4, QPP (QPP127), or vehicle started 15 minutes after CFA was injected into one of the two hind paws to initiate inflammatory pain, and injections continued every 12 hours for three additional days. For each day's examination of withdrawal latency, both left and right hind paws were subjected to 6-12 thermal pain measurements to obtain an average response time, and for each mouse the average of the uninjured hind paw response time was divided by the average of the injured side response time to obtain a pain response ratio for each mouse which was then plotted and subjected to indicated statistical analysis. Data shown were those obtained at day +3 post-CFA. Mice were at 12 weeks age when experiment started.
# A20 was therefore tested in 14-week-old CD1 mice for enhanced thermal sensitivity induced by CFA. […]
# [2] = in vitro metabolic stability, murine microsomal assay; assay type: in vitro ADME, mouse; details: for half-life: mouse, liver microsomes, murine microsomal assay; for metabolic stability: murine microsomal, compared to A20
# EphB2 = EphB2 phosphorylation in mouse brain after dosing (immunoprecipitation/immunoblot); assay type: in vivo; details: 4 days
# Method: Wild-type mice aged 10-12 weeks were IP injected every 12 hr for four days with vehicle (PBS) or 10 mg/kg of 2×·HCl salt forms of A20 (in PBS), A20-I (in PBS), or 3511-I, in 94% PBS/6% DMSO) for a total of 8 injections. Exactly 2 hr after final injection of A20 chemical, brains were dissected and frozen at −80 °C. Whole brain protein lysates were then prepared in a Dounce homogenizer using 5 ml PLC lysis buffer, and 1 ml of lysate was used for immunoprecipitation (IP) with 1 μg goat anti-EphB2 antibody, followed by immunoblot (IB) analysis with goat anti-EphB2, rabbit anti-phosphoEphB1/B2 (pEphB1/B2), and mouse anti-EphrinB2 antibodies using appropriate HRP conjugated secondary antibodies and chemiluminescent detection methods.
# FIG. 79A depicts an illustrative immunoblot showing expression of EphB2, phospho-EphB1/B2, and EphrinB2 (co-IP) in the mouse brains. […] The level of co-immunoprecipitated EphrinB2 from the brains of A20 chemical injected animals was generally lower as indicated by fainter bands. FIGS. 79B and 79C show quantification of band intensities (number of photons detected) to obtain ratios of pEphB/EphB2 as a measure of EphB2 receptor activation levels (FIG. 79B) and ratios of EphrinB2/EphB2 as a measure of how much EphrinB2 is co-immunoprecipitated with the EphB2 receptor (FIG. 79C).
# Whole brain protein lysates were prepared from wild-type mice either oral dosed (PO) or injected (IP) for 4 days with vehicle (PBS) or 20 mg/kg of 2×·HCl salt drugs of A20 or A20-I every 12 hr, with last ([…]) dose staggered such that brain dissections happened 2 hr after final drug dosing. EphB2 was immunoprecipitated from 1 ml of protein lysate using 1 μg of goat anti-EphB2 antibodies and then precipitated proteins immunoblotted with goat anti-EphB2, rabbit anti-pTyr1000, and mouse 4G10 antibodies using appropriate HRP conjugated secondary antibodies and chemiluminescent detection methods.
# The pTry1000 and 4G10 immunoblots (FIG. 80B and FIG. 80C, respectively), which both recognize tyrosine phosphorylated proteins and are readouts for the activated EphB2 tyrosine kinase catalytic domain, both show strong tyrosine phosphorylation of the receptor in 3 of 4 vehicle (V) control lanes. […] The results shown here also highlight our finding that when EphB2 is tyrosine phosphorylated and catalytically activate in the intact brain, the protein migrates much slower in the SDS-PAGE gels with apparent migration in distinct bands-220-260 kDa (green arrows in FIGS. 80B and 80C), as opposed to the typical migration of unphosphorylated EphB2 protein at 125 kDa (black arrow in FIG. 80A).
SMILES,half-life [2] [h],activated phosphorylated EphB2 in brain (EphB2; IP 10 mg/kg every 12 hr),thermal pain ([1]; dosed after CFA),other results
"Oc1c(Br)cc(CN2CCOCC2)c2cccnc12 [Compound 5, 7-bromo-5-(morpholinomethyl)quinolin-8-ol]",3.73,generally lower level of activated phosphorylated EphB2 in the brain,,"thermal pain ratio ([1]; IP or PO 20 mg/kg, vehicle 4 or above): < 2; thermal pain ([1]; IP, dosing started two days before CFA, listed as A20): remarkably blunted; also recorded: appears to be a more effective agent; thermal pain ([1]; dosed after CFA, listed as A20): ability to blunt the enhanced sensitivity produced by the inflammatory pain insult; also recorded: reduced sensitivity to the infrared heat source compared to the vehicle treated mice; activated phosphorylated EphB2 in brain (EphB2; PO or IP 20 mg/kg every 12 hr): lower levels of activated phosphorylated EphB2 in the brain"
"Oc1ccc(CN2CCN(Cc3ccc(Br)cc3)CC2)c2cccnc12 [Compound 42, 5-((4-(4-bromobenzyl)piperazin-1-yl)methyl)quinolin-8-ol]",,,ability to blunt the enhanced sensitivity produced by the inflammatory pain insult,
"Oc1ccc(CN2CCN(c3ccc(Br)cc3)CC2)c2cccnc12 [Compound 26, 5-((4-(4-bromophenyl)piperazin-1-yl)methyl)quinolin-8-ol]",,,ability to blunt the enhanced sensitivity produced by the inflammatory pain insult,
"Oc1ccc(CN2CCOCC2)c2cccnc12 [Compound 1, 5-(morpholinomethyl)quinolin-8-ol]",0.367,,,
"COc1ccccc1N1CCN(Cc2cc(Br)c(O)c3ncccc23)CC1 [Compound 70, 7-bromo-5-((4-(2-methoxyphenyl)piperazin-1-yl)methyl)quinolin-8-ol]",2.27,,,
"Oc1ccc(CN2CCN(c3ccc(Br)cn3)CC2)c2cccnc12 [Compound 33, 5-((4-(5-bromopyridin-2-yl)piperazin-1-yl)methyl)quinolin-8-ol]",,,ability to blunt the enhanced sensitivity produced by the inflammatory pain insult,
"COc1ccccc1N1CCN(Cc2cc(I)c(O)c3ncccc23)CC1 [Compound 71, 7-iodo-5-((4-(2-methoxyphenyl)piperazin-1-yl)methyl)quinolin-8-ol]",,generally lower level of activated phosphorylated EphB2 in the brain,,
"Oc1c(I)cc(CN2CCOCC2)c2cccnc12 [Compound 7, 7-iodo-5-(morpholinomethyl)quinolin-8-ol]",,generally lower level of activated phosphorylated EphB2 in the brain,,metabolic stability ([2]; listed as A20-1): longer in vitro half-life; metabolic stability ([2]; listed as A20-I): increased in vitro metabolic stability compared to A20; activated phosphorylated EphB2 in brain (EphB2; PO or IP 20 mg/kg every 12 hr): lower levels of activated phosphorylated EphB2 in the brain
